Reference: patent US12427134B2, “Methods of reducing the risk of cardiovascular events in a subject with atrial fibrillation and/or atrial flutter” (priority 2019, dated 2025)

Test system: hypertriglyceridemic patients with cardiovascular disease or at high risk for cardiovascular disease
Assay: REDUCE-IT: treatment-emergent adverse events and serious adverse events (safety population)
[1] = BMI ≥25 to <30 kg/m^2 (N = 1427)
[2] = No Ezetimibe at baseline (N = 3827)
[3] = Region Eastern Europe (N = 1053)

Compound: CC/C=C\C/C=C\C/C=C\C/C=C\C/C=C\CCCC(=O)OCC [AMR101, eicosapentaenoic acid ethyl ester]
- Patients with at least 1 TEAE, % (Age <65 years (N = 2232)): (77.3) %
- TEAE: GI disorders, % (Age <65 years (N = 2232)): (27.9) %
- TEAE: General disorders and administration site condition, % (Age <65 years (N = 2232)): (21.6) %
- TEAE: Musculoskeletal and connective tissue disorders, % (Age <65 years (N = 2232)): (31.4) %
- TEAE: Nervous system disorders, % (Age <65 years (N = 2232)): (20.3) %
- TEAE: Respiratory, thoracic, and mediastinal disorders, % (Age <65 years (N = 2232)): (18.9) %
- Patients with at least 1 TEAE, % (Age ≥65 years (N = 1857)): (87.1) %
- TEAE: GI disorders, % (Age ≥65 years (N = 1857)): (39.2) %
- TEAE: General disorders and administration site condition, % (Age ≥65 years (N = 1857)): (29.5) %
- TEAE: Musculoskeletal and connective tissue disorders, % (Age ≥65 years (N = 1857)): (41.2) %
- TEAE: Nervous system disorders, % (Age ≥65 years (N = 1857)): (29.7) %
- TEAE: Respiratory, thoracic, and mediastinal disorders, % (Age ≥65 years (N = 1857)): (30.5) %
- TEAEs, overall incidence (Asia Pacific region subgroup): 76.9%
- TEAE class nervous system disorders, patients (Asian Pacific region subgroup): 20.8%
- Patients with at least 1 TEAE, % (BMI <25 kg/m^2 (N = 320)): (80.6) %
- TEAE: GI disorders, % (BMI <25 kg/m^2 (N = 320)): (33.8) %
- TEAE: General disorders and administration site condition, % (BMI <25 kg/m^2 (N = 320)): (23.1) %
- TEAE: Musculoskeletal and connective tissue disorders, % (BMI <25 kg/m^2 (N = 320)): (26.9) %
- TEAE: Nervous system disorders, % (BMI <25 kg/m^2 (N = 320)): (22.8) %
- TEAE: Respiratory, thoracic, and mediastinal disorders, % (BMI <25 kg/m^2 (N = 320)): (21.3) %
- Patients with at least 1 TEAE, % [1]: (81.5) %
- TEAE: GI disorders, % [1]: (30.8) %
- TEAE: General disorders and administration site condition, % [1]: (24.0) %
- TEAE: Musculoskeletal and connective tissue disorders, % [1]: (33.4) %
- TEAE: Nervous system disorders, % [1]: (23.6) %
- TEAE: Respiratory, thoracic, and mediastinal disorders, % [1]: (22.7) %
- TEAE class GI disorders, patients (BMI ≥25 to <30 kg/m^2 subgroup): 30.8%
- Patients with at least 1 TEAE, % (BMI ≥30 kg/m^2 (N = 2331)): (82.3) %
- TEAE: GI disorders, % (BMI ≥30 kg/m^2 (N = 2331)): (34.3) %
- TEAE: General disorders and administration site condition, % (BMI ≥30 kg/m^2 (N = 2331)): (26.3) %
- TEAE: Musculoskeletal and connective tissue disorders, % (BMI ≥30 kg/m^2 (N = 2331)): (38.7) %
- TEAE: Nervous system disorders, % (BMI ≥30 kg/m^2 (N = 2331)): (25.5) %
- TEAE: Respiratory, thoracic, and mediastinal disorders, % (BMI ≥30 kg/m^2 (N = 2331)): (25.6) %
- Patients with at least 1 TEAE, % (Baseline Ezetimibe (N = 262)): (92.0) %
- TEAE: GI disorders, % (Baseline Ezetimibe (N = 262)): (37.4) %
- TEAE: General disorders and administration site condition, % (Baseline Ezetimibe (N = 262)): (26.3) %
- TEAE: Musculoskeletal and connective tissue disorders, % (Baseline Ezetimibe (N = 262)): (41.2) %
- TEAE: Nervous system disorders, % (Baseline Ezetimibe (N = 262)): (23.7) %
- TEAE: Respiratory, thoracic, and mediastinal disorders, % (Baseline Ezetimibe (N = 262)): (27.5) %
- Patients with at least 1 TEAE, % (CV Risk Category 1 (N = 2892)): (81.6) %
- TEAE: GI disorders, % (CV Risk Category 1 (N = 2892)): (31.3) %
- TEAE: General disorders and administration site condition, % (CV Risk Category 1 (N = 2892)): (25.3) %
- TEAE: Musculoskeletal and connective tissue disorders, % (CV Risk Category 1 (N = 2892)): (33.6) %
- TEAE: Nervous system disorders, % (CV Risk Category 1 (N = 2892)): (23.4) %
- TEAE: Respiratory, thoracic, and mediastinal disorders, % (CV Risk Category 1 (N = 2892)): (23.4) %
- Patients with at least 1 TEAE, % (CV Risk Category 2 (N = 1197)): (82.1) %
- TEAE: GI disorders, % (CV Risk Category 2 (N = 1197)): (37.2) %
- TEAE: General disorders and administration site condition, % (CV Risk Category 2 (N = 1197)): (24.9) %
- TEAE: Musculoskeletal and connective tissue disorders, % (CV Risk Category 2 (N = 1197)): (41.3) %
- TEAE: Nervous system disorders, % (CV Risk Category 2 (N = 1197)): (27.4) %
- TEAE: Respiratory, thoracic, and mediastinal disorders, % (CV Risk Category 2 (N = 1197)): (26.1) %
- Patients with at least 1 TEAE, % (Female (N = 1162)): (79.9) %
- TEAE: GI disorders, % (Female (N = 1162)): (38.3) %
- TEAE: General disorders and administration site condition, % (Female (N = 1162)): (25.5) %
- TEAE: Musculoskeletal and connective tissue disorders, % (Female (N = 1162)): (37.6) %
- TEAE: Nervous system disorders, % (Female (N = 1162)): (27.6) %
- TEAE: Respiratory, thoracic, and mediastinal disorders, % (Female (N = 1162)): (23.4) %
- Patients with at least 1 TEAE, % (Male (N = 2927)): (82.5) %
- TEAE: GI disorders, % (Male (N = 2927)): (30.9) %
- TEAE: General disorders and administration site condition, % (Male (N = 2927)): (25.1) %
- TEAE: Musculoskeletal and connective tissue disorders, % (Male (N = 2927)): (35.2) %
- TEAE: Nervous system disorders, % (Male (N = 2927)): (23.3) %
- TEAE: Respiratory, thoracic, and mediastinal disorders, % (Male (N = 2927)): (24.5) %
- Patients with at least 1 TEAE, % [2]: (81.1) %
- TEAE: GI disorders, % [2]: (32.7) %
- TEAE: General disorders and administration site condition, % [2]: (25.1) %
- TEAE: Musculoskeletal and connective tissue disorders, % [2]: (35.5) %
- TEAE: Nervous system disorders, % [2]: (24.6) %
- TEAE: Respiratory, thoracic, and mediastinal disorders, % [2]: (24.0) %
- Patients with at least 1 TEAE, % (Race Non-white (N = 398)): (81.4) %
- TEAE: GI disorders, % (Race Non-white (N = 398)): (28.9) %
- TEAE: General disorders and administration site condition, % (Race Non-white (N = 398)): (25.4) %
- TEAE: Musculoskeletal and connective tissue disorders, % (Race Non-white (N = 398)): (30.9) %
- TEAE: Nervous system disorders, % (Race Non-white (N = 398)): (23.4) %
- TEAE: Respiratory, thoracic, and mediastinal disorders, % (Race Non-white (N = 398)): (23.9) %
- Patients with at least 1 TEAE, % (Race White (N = 3691)): (81.8) %
- TEAE: GI disorders, % (Race White (N = 3691)): (33.5) %
- TEAE: General disorders and administration site condition, % (Race White (N = 3691)): (25.2) %
- TEAE: Musculoskeletal and connective tissue disorders, % (Race White (N = 3691)): (36.4) %
- TEAE: Nervous system disorders, % (Race White (N = 3691)): (24.7) %
- TEAE: Respiratory, thoracic, and mediastinal disorders, % (Race White (N = 3691)): (24.2) %
- Patients with at least 1 TEAE, % (Region Asia Pacific (N = 130)): (76.9) %
- TEAE: GI disorders, % (Region Asia Pacific (N = 130)): (18.5) %
- TEAE: General disorders and administration site condition, % (Region Asia Pacific (N = 130)): (22.3) %
- TEAE: Musculoskeletal and connective tissue disorders, % (Region Asia Pacific (N = 130)): (17.7) %
- TEAE: Nervous system disorders, % (Region Asia Pacific (N = 130)): (20.8) %
- TEAE: Respiratory, thoracic, and mediastinal disorders, % (Region Asia Pacific (N = 130)): (17.7) %
- Patients with at least 1 TEAE, % [3]: (58.1) %
- TEAE: GI disorders, % [3]: (11.9) %
- Patients with at least 1 TEAE, % (Region Westernized (N = 2906)): (90.5) %
- TEAE: GI disorders, % (Region Westernized (N = 2906)): (41.3) %
- TEAE: General disorders and administration site condition, % (Region Westernized (N = 2906)): (32.2) %
- TEAE: Musculoskeletal and connective tissue disorders, % (Region Westernized (N = 2906)): (46.4) %
- TEAE: Nervous system disorders, % (Region Westernized (N = 2906)): (30.0) %
